Measurements reported in patent publication US20240025903A1, “Bicyclic Compounds and Uses Thereof for the Treatment of Diseases” (Athira Pharma, Inc., priority 2020, published 2024).

Legend:
[1] = Turbidimetric solubility assay; type: physicochemical; settings: aqueous buffer, kinetic from dmso stock, PBS, 37° C., absorbance 620 nm
Experimental: Aqueous solubility is a critical drug property that helps to predict bioavailability. Generally, compounds with aqueous solubility <100 μg/ml are poor drugs.
To assess a compound's solubility by turbidity, test compounds were first dissolved in organic solvent (DMSO) at a concentration of 10 mM. This compound solution was then diluted in aqueous solvent (PBS) in a dilution series from […] in a 96-well assay plate. Solutions were incubated at 37° C. for 2 hours.
In wells with test compounds over their solubility limit, the compound will precipitate, effectively blocking the passage of light and thus increasing the absorbance signal of UV light at a wavelength of 620 nm. Compounds were considered insoluble at a tested concentration if turbidity raises the absorbance more than 10% above control reads.

[2] = test system: MDCK cells; assay: Cell scattering behavior assay; type: cell-based; design: key: − indicates that the compound failed to significantly promote cell scattering behavior; + indicates maximum potency at or above 100 nM; ++ indicates maximum potency at or above 10 nM; +++ indicates maximum potency at or above 1 nM; ++++ indicates maximum potency at or above 0.1 nM; settings: 5 ng/mL HGF, 24 hours, normalized particle count vs HGF alone
Experimental: MDCK cells were grown under normal conditions and observed to spontaneously form tight colonies as they proliferate. MDCK cells respond to HGF treatment by moving away from each other (scattering), which is quantified to assess the amount of HGF/MET activation in the cell population. In this experiment, MDCK cells were plated in a 96-well format, treated with HGF and exemplary compounds, fluorescently stained, imaged in large fields, and scattering behavior was quantified. Quantification was determined by analyzing the number of continuous groups of cells compared to the total stained area imaged (normalized particle counts).
MDCK cells were plated at low density in black-walled imaging plates and allowed to attach overnight at 37° C. and 5% CO2 in DMEM+10% FBS. Cells were then starved to 2 hours in DMEM without FBS (“starve media”). Samples containing exemplary compounds were prepared in DMEM without FBS and included 5 ng/mL HGF protein (“treatment media”). A control curve was also prepared for each plate using HGF concentrations of 0, 5, 10, and 20 ng/mL. Starve media was replaced with treatment media and cells were incubated for 24 hours at 37° C. and 5% CO2.
After incubation, cells were fixed by replacing treatment media with cold ethanol and incubating for 20 minutes at 4° C. Cells were then rehydrated by washing with PBS and then with stain solution (fluorescent wheat germ agglutinin; WGA488 at 20 μg/mL in PBS). Cells were incubated with stain solution 30 minutes at room temperature after which stain solution was replaced with fresh PBS.
Fields of cells were imaged using an iCyte high content imager in the green wavelength. Images were converted to binary and analyzed for particle size and particle count. For the purpose of analysis, an individual cell touching no other cells or separated colonies of cells were identified as particles, and particle counts were normalized by the total signal area to account for differences in cell number. […] Compound potency was assessed by statistical increase in normalized particle count compared to HGF treatment alone.

[3] = molecular target: T1, HGF/MET system (Homo sapiens, UniProt P08581+P14210); assay: Phospho-MET ELISA; type: cell-based; design: key: − indicates that the compound failed to significantly augment MET phosphorylation; + indicates maximum potency at or above 100 nM; ++ indicates maximum potency at or above 10 nM; +++ indicates maximum potency at or above 1 nM; ++++ indicates maximum potency at or above 0.1 nM; settings: HEK293 cells, 1 ng/mL recombinant HGF, 15 minutes, pMET ELISA
T1 construct: HEK293 cells were prepared by passage into 6-well multi-plates; endogenous in cells; host or cells: HEK293
T1 sequence (P08581 308-1390 limits assumed): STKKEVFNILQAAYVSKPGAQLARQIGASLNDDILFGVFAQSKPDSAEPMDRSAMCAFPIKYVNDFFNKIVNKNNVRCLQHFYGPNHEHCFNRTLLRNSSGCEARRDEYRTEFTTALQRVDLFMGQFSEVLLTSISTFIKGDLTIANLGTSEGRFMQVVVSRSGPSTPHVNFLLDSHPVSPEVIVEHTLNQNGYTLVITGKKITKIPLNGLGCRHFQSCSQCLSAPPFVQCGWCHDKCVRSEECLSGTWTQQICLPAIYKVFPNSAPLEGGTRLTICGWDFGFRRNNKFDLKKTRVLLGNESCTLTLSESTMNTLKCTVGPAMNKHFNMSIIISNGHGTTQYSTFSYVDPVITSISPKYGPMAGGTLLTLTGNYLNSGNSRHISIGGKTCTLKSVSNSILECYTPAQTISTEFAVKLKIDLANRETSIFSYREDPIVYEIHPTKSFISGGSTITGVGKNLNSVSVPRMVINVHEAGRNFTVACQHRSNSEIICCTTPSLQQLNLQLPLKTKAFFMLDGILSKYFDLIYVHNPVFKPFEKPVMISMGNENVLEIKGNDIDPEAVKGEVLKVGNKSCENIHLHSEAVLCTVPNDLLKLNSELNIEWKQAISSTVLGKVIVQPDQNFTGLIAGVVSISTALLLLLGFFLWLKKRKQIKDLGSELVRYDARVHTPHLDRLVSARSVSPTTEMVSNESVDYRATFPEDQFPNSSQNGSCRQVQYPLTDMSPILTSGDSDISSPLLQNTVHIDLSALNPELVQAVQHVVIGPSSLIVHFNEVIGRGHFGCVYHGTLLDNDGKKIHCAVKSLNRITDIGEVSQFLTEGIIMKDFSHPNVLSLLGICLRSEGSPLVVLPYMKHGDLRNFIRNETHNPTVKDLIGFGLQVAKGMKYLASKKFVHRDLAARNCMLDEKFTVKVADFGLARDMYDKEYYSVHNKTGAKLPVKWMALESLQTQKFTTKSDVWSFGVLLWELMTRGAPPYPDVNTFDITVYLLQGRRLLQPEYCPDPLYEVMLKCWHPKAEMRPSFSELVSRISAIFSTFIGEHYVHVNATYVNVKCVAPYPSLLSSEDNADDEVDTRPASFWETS
T1 sequence (P14210 32-494 limits assumed): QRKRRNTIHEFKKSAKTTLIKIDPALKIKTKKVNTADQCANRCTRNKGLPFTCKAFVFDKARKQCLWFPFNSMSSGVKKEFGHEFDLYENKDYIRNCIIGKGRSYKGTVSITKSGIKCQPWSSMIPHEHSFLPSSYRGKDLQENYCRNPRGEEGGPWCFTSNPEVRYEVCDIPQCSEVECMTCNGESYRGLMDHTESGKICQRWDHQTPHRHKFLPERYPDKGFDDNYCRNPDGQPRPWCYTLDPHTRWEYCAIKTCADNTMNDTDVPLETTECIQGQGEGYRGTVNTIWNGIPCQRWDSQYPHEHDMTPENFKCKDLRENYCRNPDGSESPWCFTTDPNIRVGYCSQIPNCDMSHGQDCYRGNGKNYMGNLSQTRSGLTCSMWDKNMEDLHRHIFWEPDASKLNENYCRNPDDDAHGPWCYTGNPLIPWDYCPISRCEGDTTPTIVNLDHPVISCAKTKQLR
Experimental: Compounds were screened for potency towards the HGF/MET system using phospho-MET (pMET) ELISA kits (Cell Signaling). pMET levels were detected in samples having low (1 ng/mL) and high (10 ng/mL) concentrations of HGF.
HEK293 cells were prepared by passage into 6-well multi-plates and grown at 37° C. at 5% CO2 in DMEM+10% FBS until approximately 90% confluent. Cells were then starved for at least 8 hours in serum-free growth media.
Exemplary compounds were prepared in DMEM+0.1% FBS, diluted and added to treatment media with 1 ng/mL recombinant HGF protein (R&D Systems). Cells were incubated in triplicate at 37° C. and 5% CO2 for 15 minutes. Samples were then treated with 180 μL ice-cold RIPA (radioimmunoprecipitation assay) buffer and cells were lysed on ice for 15 minutes. Lysates were cleared by centrifugation at 16,000-g for 15 minutes and the supernatant was retained. Samples were normalized using a BCA assay of lysates to determine protein concentrations across the samples.
Between 50 and 100 μg total protein lysate was loaded into ELISA wells in pMET Sandwich ELISA kit (Cell Signaling Catalog #7227C), ensuring equal protein load in each well. The ELISA was processed according to manufacturer's instructions. After color developed, absorbance was read on an optical plate reader at 450 nm.
Potency measurements were determined using peak efficacy by scaling test compound dose treatments along a scale of 1-10 between 1 ng/mL and 10 ng/mL HGF doses according to the following formula: […]
where y is the normalized data-point, x is the raw data point, A is the mean HGF at 1 ng/mL, and B is the mean HGF at 10 ng/mL.

[4] = Parallel artificial membrane permeability assay (PAMPA); type: in vitro ADME; settings: PBS, room temperature
Experimental: Bioavailable drugs must permeate the cellular membranes of the lining of the digestive tract. To estimate the penetrability of exemplary compounds, the in vitro parallel artificial membrane permeability assay (PAMPA) was utilized.
Test compounds must have a standard curve in the final read plate to determine partitioned concentration of each drug. A 6-point standard curve was prepared for each compound from 0 to 200 μM in phosphate-buffered saline (PBS).
Test compound solution (300 μL in PBS) was added to the donor (bottom) well of the PAMPA plate in 5 replicates and PBS vehicle (200 μL) was added to the acceptor (top) wells of appropriate wells to match the loading of the donor plate. The bottom and top of the PAMPA plates were then sandwiched together. The PAMPA plates were then incubated at room temperature for 5 hours. After incubation, 150 μL of donor solution was added to a UV compatible plate containing the corresponding standard curve. 150 μL of acceptor well solution was added adjacent to the corresponding standard curve and donor well samples for that compound. The plate was then read using a UV plate reader.
Permeability and membrane retention were then calculated based on the following formulas:
Permeability (cm/s): (Pe)(cm/s)={−ln [1−CA(t)/Ceq]}/[A*(1/VD+1/VA)*t] (equation 1) • where: • A=filter area (0.3 cm^2); • VD=donor well volume (0.3 mL); • VA=acceptor well volume (0.2 mL); • t=incubation time (seconds); • CA(t)=compound concentration in acceptor well at time t; • CD(t)=compound concentration in donor well at time t; and • Ceq=[CD(t)*VD+CA(t)*VA]/(VD+VA).
Membrane Retention (R)=1−[CD(t)*VD+CA(t)*VA]/(C0*VD) (equation 2) • where: • CD(t), VD, CA(t), and VA are as defined for equation 1, and • C0=initial concentration in donor well (200 uM).

[5] = test system: HepG2 cells; assay: Cytotoxicity assay (LDH release); type: cell-based; settings: 48 hours, 0.1 to 100 μM
Experimental: This experiment was designed to obtain a preliminary assessment of cytotoxicity.
HepG2 cells were plated in 96-well cell culture plates and allowed to attach overnight at 37° C., 5% CO2 in EMEM+10% FBS. Treatments were made in complete media (EMEM+10% FBS) and included a dilution series of test compounds from 0.1 to 100 μM. Known cytotoxin cerivastatin was used as a positive assay control and prepared at a final concentration of 0.5 μM.
Growth media was replaced with treatment media (EMEM+10% FBS containing test compound dissolved in DMSO) and cells were incubated with test compounds for 48 hours. At the end of the incubation period, supernatant media from each well was transferred to a new plate and LDH assay working solution was added. LDH assay solution undergoes a colorimetric reaction in proportion to the amount of lactate dehydrogenase (an intracellular protein that was only found in the media in the presence of lysed cells) in the media. Color reaction was quantified by measurement of absorbance at a wavelength of 490 nm.
The signal range of the assay was determined by no manipulation in a negative control treatment and full lysis of all cells in a lysis control sample. Compounds that increase the level of cytotoxicity more than 20% above negative control samples were considered cytotoxic in this assay.

Compound	solubility at 2 h [1] [µM]	Potency (augmentation of MET phosphorylation) [3]	Papp at 5 h, 200 µM [4] [×10⁻⁶ cm/s]	Potency (cell scattering) [2]	Cytotoxicity [5]	Permeability ([4]; 5 hours)
CCC(C)CN1CC2N(Cc3ccc(OC(F)F)cc3)CCC(=O)N2C(CC(=O)O)C1=O (stereo not drawn) [Compound 49, 2-(1-(4-(difluoromethoxy)benzyl)-8-(2-methylbutyl)-4,7-dioxooctahydro-2H-pyrazino[1,2-a]pyrimidin-6-yl)acetic acid]	> 300	++++ (++++ indicates maximum potency at or above 0.1 nM)	> 2	++++ (++++ indicates maximum potency at or above 0.1 nM)	++++ (++++ indicates non-toxic at 100 μM)	
CCC(C)CN1CC2N(C(=O)c3ccc(O)cc3)CCC(=O)N2[C@@H](C)C1=O (stereo partly drawn) [Compound 3a]	> 300	−		−		+++ (+++ indicates permeability below 2 × 10^−6 cm/s)
CCC(C)CN1CC2N(Cc3ccc(F)cc3)CCC(=O)N2C(C)C1=O (stereo not drawn) [Compound 42]	> 300	++++ (++++ indicates maximum potency at or above 0.1 nM)	> 2	+++ (+++ indicates maximum potency at or above 1 nM)	++++ (++++ indicates non-toxic at 100 μM)	
CC1C(=O)N(CCC2CCC2)CC2N(Cc3ccc(C(F)(F)F)c(Cl)c3)CCC(=O)N12 (stereo not drawn) [Compound 51]	> 100	+++ (+++ indicates maximum potency at or above 1 nM)	< 2	+++ (+++ indicates maximum potency at or above 1 nM)	+++ (+++ indicates non-toxic at 10 μM)	
CCC(C)CN1CC2N(Cc3ccc(OC(F)F)cc3)CCC(=O)N2C(CC(C)C)C1=O (stereo not drawn) [Compound 53, 1-(4-(difluoromethoxy)benzyl)-6-isobutyl-8-(2-methylbutyl)hexahydro-4H-pyrazino[1,2-a]pyrimidine-4,7(6H)-dione]	> 100	++ (++ indicates maximum potency at or above 10 nM)	< 2	+++ (+++ indicates maximum potency at or above 1 nM)	+++ (+++ indicates non-toxic at 10 μM)	
CCC(C)CN1CC2N(C(=O)c3ccc(O)nc3)CCC(=O)N2[C@@H](C)C1=O (stereo partly drawn) [Compound 4a]	> 300	+ (+ indicates maximum potency at or above 100 nM)	> 10	+ (+ indicates maximum potency at or above 100 nM)	++++ (++++ indicates non-toxic at 100 μM)	
CC1C(=O)N(CCC2CCCC2)CC2N(Cc3ccc(F)cc3)CCC(=O)N12 (stereo not drawn) [Compound 46, 8-(2-cyclopentylethyl)-1-(4-fluorobenzyl)-6-methylhexahydro-4H-pyrazino[1,2-c]pyrimidine-4,7(6H)-dione]	> 300	−		−		
CC1C(=O)N(CCC2CCCC2)CC2N(Cc3ccc(C(F)(F)F)c(Cl)c3)CCC(=O)N12 (stereo not drawn) [Compound 54]	> 30	−	< 2	−	+++ (+++ indicates non-toxic at 10 μM)	
CCC(C)N1CC2N(Cc3ccc(O)cc3)CCC(=O)N2CC1=O (stereo not drawn) [Compound 9]	> 300	−	> 2	−	++++ (++++ indicates non-toxic at 100 μM)	
CC(C)CN1CC2N(C(=O)c3ccc(C(F)(F)F)cc3)CCC(=O)N2C(C)C1=O (stereo not drawn) [Compound 23]	> 300	−		−		
C=CCCN1CC2N(C(=O)c3ccc(OC(F)F)cc3)CCC(=O)N2C(C)C1=O (stereo not drawn) [Compound 18]	> 300	−		−		
